# Measurements reported in patent US9868954B2, “Reduction of TGFβ signaling in myeloid cells in the treatment of cancer” (The United States of America, as represented by the …, priority 2011, dated 2018).
# System: Gr-1+CD11b+ myeloid cells from Tgfbr2^myeKO
# Test: Expression of IL-10, IL-4 and PF4 (Western blotting, quantitative PCR) in sorted Gr-1+CD11b+ myeloid cells cultured with pathway inhibitors
# Assay type: cell-based, mice
# Settings: myeloid cells lacking Tgfbr2, cultured 6 hours with inhibitor; mRNA level and protein level
# Method: Gr-1+CD11b+ myeloid cells were sorted with MACS from Tgfbr2^myeKO and cultured for 6 hours with an inhibitor of GSK3 (SB216763, Sigma) or PI3K (LY294002, Calbiochem) at different doses (2, 5, and 10 μM for the GSK3 inhibitor; 5, 10, and 20 μM for the PI3K inhibitor). SB216763 is a potent and selective ATP-competitive inhibitor of the serine/threonine protein kinas GSK α and β. […] GSK3 Western blotting was performed to detect inhibiting activity. The expression of IL-10, IL-4, and PF4 was examined using Western blotting and quantitative PCR.
row,Structure (SMILES),"expression of IL-10, IL-4, and PF4"
1,Cc1ccc2nc(NCCN)c3ncc(C)n3c2c1 [BMS-345541],did not show a significant effect
2,Cn1cc(C2=C(c3ccc(Cl)cc3Cl)C(=O)NC2=O)c2ccccc21 [SB216763],"reversed the down-regulation of IL-10, IL-4, and PF4"
